Assay [1] deals with cloned DNA polymerase I genetically engineered to eliminate 3′-5′ exonuclease activity, 5′-3′ exonuclease activity and discrimination against …. Kind of assay: Template-directed incorporation of gamma phosphate-labeled ddNTP with shrimp alkaline phosphatase, fluorescence read-out. The class given is biochemical. Particulars: 2 μM nucleotide, 5 mM MgCl2, 0.25 mM MnCl2, shrimp alkaline phosphatase. How it is done: Reactions were assembled at room temperature (23° C.) using the dideoxynucleotide of Example (1).
Referring now to FIG. 1, for template 1 (SEQ ID NO: 2) in the present example, DNA polymerase would be expected to extend the primer with labeled ddGTP. Similarly, for template 2 (SEQ ID NO: 3) in FIG. 1, DNA polymerase would be expected to extend the primer with ddATP, but not with labeled ddGTP.
(§1) Reaction conditions: A 70 μl reaction containing 25 mM Tris, pH 8.0, 5% glycerol 5 mM MgCl2, 0.5 mM beta-mercaptoethanol, 0.01% tween-20, 0.25 units shrimp alkaline phosphatase, 100 nM primer annealed to template (the next template nucleotide is either dCMP or dTMP, as indicated), and 2 μM ddGTP-CF3-Coumarin was assembled in a quartz fluorescence ultra-microcuvet in a LS-55 Luminescence Spectrometer (Perkin Elmer), operated in time drive mode. Excitation and emission wavelengths are 390 nm and 500 nm respectively. Slit widths were 5 nm for excitation slits, 15 nm for emission slits. The reaction was initiated by the addition of 0.35 μl (11 units) of a cloned DNA polymerase I genetically engineered to eliminate 3′-5′ exonuclease activity, 5′-3′ exonuclease activity and discrimination against dideoxynucleotides and 0.25 mM MnCl2.
Reactions were assembled at room temperature (23° C.) using the dideoxynucleotide of Example (2).
Referring now to FIG. 2, for template 2 (SEQ ID NO: 3) in the present example, DNA polymerase would be expected to extend the primer with labeled ddATP. Similarly, for template 1 (SEQ ID NO: 2) in FIG. 2, DNA polymerase would be expected to extend the primer with ddGTP, but not with labeled ddATP.
as §1, with “template,” for “template (the next template nucleotide is either dCMP or dTMP, as indicated),”, “ddATP-CN-Coumarin” for “ddGTP-CF3-Coumarin”, “410” for “390”, “450” for “500”

The subject of a further assay is various polymerases. Kind of assay: Effect of MnCl2 on incorporation of terminal-phosphate labeled nucleotide on oligo dT/poly dA. It counts as biochemical. Conditions: 10 uM nucleotide, 60° C. How it is done: Oligo dT (35mer) was annealed with poly dA by mixing equal volumes of each at 20 uM conc, and incubating at 80° C. for 4 min and instant cooling on ice. 1 ul of this solution was mixed into a 20 ul reaction containing 25 mM Hepes, pH 8.0, 0.01% Tween-20, 10 uM dT4P-DDAO, 0.005 u/ul BAP, a polymerase at concentrations shown in FIG. 7 and various concentrations of MnCl2—and MgCl2.

Assay [2] relates to Thermo Sequenase I DNA polymerase. The assay is described as follows: Relative incorporation of phosphate labeled versus base labeled nucleotides in magnesium or manganese buffer. It counts as biochemical. Conditions: 5 mM MnCl2 vs 5 mM MgCl2, 1 μM nucleotide, 50 degrees C., 10 minutes. How it is done: Reactions (10 μl, 50 degrees C., 10 minutes) contained 1× reaction buffer (25 mM HEPES 8.5, 0.01% tween-20), 3 μg activated DNA (Chromosomal DNA), 5 mM either MnCl2 (circles) or MgCl2 (squares), 1 μM either FAM-TAM-11-ddTTP (dashed lines) or ddT4P-DDAO (solid lines), with a serial 4 fold dilution of Thermo Sequenase I™ DNA polymerase from 10 units per reaction down to 0.01 units per reaction. Results (FIG. 3) were plotted out both on a linear scale and logarithmic scale to show both linearity with enzyme and relative incorporation efficiency.

The next assay concerns Phi 29 exo-polymerase. Particulars: 0.7 mM MnCl2 only, 25 uM nucleotide, template SEQ ID NO: 4 (FIG. 6).
Chain of Phi 29 exo-polymerase (P03680 190-575 limits assumed): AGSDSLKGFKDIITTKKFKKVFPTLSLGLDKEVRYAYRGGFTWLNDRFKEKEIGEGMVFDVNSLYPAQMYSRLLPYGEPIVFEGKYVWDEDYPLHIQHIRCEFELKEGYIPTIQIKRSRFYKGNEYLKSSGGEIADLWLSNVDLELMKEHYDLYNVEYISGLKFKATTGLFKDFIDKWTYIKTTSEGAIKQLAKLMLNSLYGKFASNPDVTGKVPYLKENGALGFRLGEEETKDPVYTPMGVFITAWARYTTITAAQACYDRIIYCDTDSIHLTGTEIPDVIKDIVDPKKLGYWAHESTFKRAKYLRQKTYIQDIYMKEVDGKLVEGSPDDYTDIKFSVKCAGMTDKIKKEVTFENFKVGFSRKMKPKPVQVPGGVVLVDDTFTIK
Setting [3] is: Primer: Template 1 (SEQ ID NO: 2), next template nucleotide dC.
Where [4] appears, read: Primer: Template 2 (SEQ ID NO: 3), next template nucleotide dT.

Read-outs that look alike come from different tables or passages of the source.

Experimental for Phi 29 exo-polymerase: Using the same primer as in example 9 and template (SEQ ID NO: 4), incorporation of dCTP-DAH-ROX at various times after the reaction was initiated, was investigated. Assay conditions were as follows: Total reaction volume: 30 ul containing 100 nM primer/template, 100 nM Phi 29 exo-polymerase, 50 mM Tris pH 7.5, 75 mM KCl, 0.7 mM MnCl2, 0.1 mM DTT, 0.3 mg/ml BSA. Reaction was initiated by addition of ROX-dCTP to a conc. of 25 uM.

In the case of `Nc1nc2c(ncn2[C@H]2CC[C@@H](COP(=O)(O)OP(=O)(O)OP(=O)(O)Oc3ccc4c(C(F)(F)F)cc(=O)oc4c3)O2)c(=O)[nH]1` [gamma labeled ddGTP, γ-(4-trifluoromethylcoumarinyl)dideoxyguanosine-5′-triphosphate], the values for the dye emission entry in assay [1] (setting [3]) and in assay [1] (setting [4]) were “dye emission was detected” and “No detectable dye emission”, respectively.
On the same counts, the results for `N#Cc1cc2ccc(OP(=O)(O)OP(=O)(O)OP(=O)(O)OC[C@@H]3CC[C@H](n4cnc5c(N)ncnc54)O3)cc2oc1=O` [gamma labeled ddATP, γ-(3-cyanocoumarinyl)dideoxyadenosine-5′-triphosphate] are “No detectable dye emission” and “dye emission was detected”.
`Cc1cn([C@H]2C[C@H](O)[C@@H](COP(=O)(O)OP(=O)(O)OP(=O)(O)OP(=O)(O)Oc3ccc4c(c3)C(C)(C)C3=C(Cl)C(=O)C(Cl)=CC3=N4)O2)c(=O)[nH]c1=O` [dT4P-DDAO, 2′-Deoxythymidine-5′-(δ-7-(9H-(1,3-dichloro-9,9-dimethylacridin-2-one)))tetraphosphate]: the “rate of incorporation in the absence of MnCl2” value in the assay with various polymerases (15 or 30 minutes (FIG. 7)) is given as “extremely slow”. In the assay with various polymerases (15 or 30 minutes, all the polymerases tested (FIG. 7)), the “effect of MnCl2, alone or in the presence of MgCl2, on the rate of incorporation” value is “major positive impact on the rate of incorporation”.
Take `Cc1cn([C@H]2CC[C@@H](COP(=O)(O)OP(=O)(O)OP(=O)(O)OP(=O)(O)Oc3ccc4c(c3)C(C)(C)C3=C(Cl)C(=O)C(Cl)=CC3=N4)O2)c(=O)[nH]c1=O` [ddT4P-DDAO, δ-9H(1,3-dichloro-9,9-dimethylacridin-2-one-7-yl)-dideoxythymidine-5′-tetraphosphate]: in assay [2], the “increase in incorporation efficiency in the manganese buffer relative to the magnesium buffer” value is 28 fold.
“ROX-amidoheptyl-gamma-amido-deoxycytidine-triphosphate [dCTP-DAH-ROX]”: the results for the misincorporation entry in the assay with Phi 29 exo-polymerase and with Phi 29 exo-polymerase (listed as dCTP-γ-ROX) were “no misincorporation takes place” and “No misincorporation was observed”, respectively.
